Series [1] has as its system bicistronic HCV replicon (replicon RNA, GenBank Accession No. AJ242654). As to the kind of experiment: HCV Replicon Assay. In kind it is cell-based. The settings on record: Hepatitis C virus, 72 h, read-out: Replicon IC50.

pIC50: −log10 of the molar value. A value given as a limit tells only on which side of the number the result lay.

As to `C[C@H](NS(=O)(=O)c1ccc(-c2c(C#N)c3cc(Cl)ccc3n2-c2ncccn2)nc1)C(F)(F)F` [compound 708, 6-[5-chloro-3-cyano-1-(pyrimidin-2-yl)-1H-indol-2-yl]-N-[(2S)-1,1,1-trifluoropropan-2-yl]pyridine-3-sulfonamide], the melting point was 193 to 196 °C. The pIC50 in series [1] is more than 6.30.

Turning to `Cc1ccc2c(C#N)c(-c3ncc(S(=O)(=O)N[C@@H](C)C(F)(F)F)cn3)n(C3CCCC3)c2c1` [compound 404, 2-(3-cyano-1-cyclopentyl-6-methyl-1H-indol-2-yl)-N-[(2S)-1,1,1-trifluoropropan-2-yl]pyrimidine-5-sulfonamide], the melting point lay within 223 to 224 °C. Further, the pIC50 in series [1] was more than 6.30.

On to `NC(=O)c1c(-c2ccc(S(N)(=O)=O)cn2)n(C2CCC2)c2cc(OC(F)F)ccc12` [compound 568, 1-cyclobutyl-6-(difluoromethoxy)-2-(5-sulfamoylpyridin-2-yl)-1H-indole-3-carboxamide], for which the melting point lay in the range of 230 to 231 °C. In series [1], the negative-log IC50 (pIC50) was 5.30 to 5.70.

For `C[C@H](NS(=O)(=O)c1ccc(-c2c(C#N)c3ccc(OC(F)F)cc3n2-c2ncccn2)nc1)C(F)(F)F` [compound 512, 6-[3-cyano-6-(difluoromethoxy)-1-(pyrimidin-2-yl)-1H-indol-2-yl]-N-[(2S)-1,1,1-trifluoropropan-2-yl]pyridine-3-sulfonamide], the melting point was in the range of 186 to 189 °C. Also, the pIC50 in series [1] was more than 6.30.

Regarding `CCn1c(-c2ccc(NS(=O)(=O)C(C)C)cn2)c(C#N)c2ccc(OC(C)C)cc21` [compound 286, N-{6-[3-cyano-1-ethyl-6-(propan-2-yloxy)-1H-indol-2-yl]pyridin-3-yl}propane-2-sulfonamide], the melting point lay in the range of 180 to 185 °C. For the same compound, in series [1], the pIC50 was 5.70 to 6.30.

`CCc1cc2c(cc1F)c(C(N)=O)c(-c1ccc(S(=O)(=O)N[C@@H](C)C(F)(F)F)cn1)n2-c1cnccn1` [compound 994, 6-ethyl-5-fluoro-1-(pyrazin-2-yl)-2-(5-{[(2S)-1,1,1-trifluoropropan-2-yl]sulfamoyl}pyridin-2-yl)-1H-indole-3-carboxamide]: the melting point lay within 120 to 127 °C. The pIC50 in series [1] was more than 6.30.

`Cc1cc(F)c2c(C#N)c(-c3ccc(S(=O)(=O)NC4(C(F)(F)F)CC4)cn3)n(C3CCCC3)c2c1` [compound 628, 6-(3-cyano-1-cyclopentyl-4-fluoro-6-methyl-1H-indol-2-yl)-N-[1-(trifluoromethyl)cyclopropyl]pyridine-3-sulfonamide]: the melting point fell in the range of 242 to 246 °C. Moreover, the pIC50 in series [1] was more than 6.30.

The compound `C[C@@H](NS(=O)(=O)c1ccc(-c2c(C#N)c3ccc(Cl)cc3n2-c2ccccn2)nc1)C(F)(F)F` [compound 489, 6-[6-chloro-3-cyano-1-(pyridin-2-yl)-1H-indol-2-yl]-N-[(2R)-1,1,1-trifluoropropan-2-yl]pyridine-3-sulfonamide] registered a melting point of 198 to 199 °C. The pIC50 in series [1] is 5.70 to 6.30.

Regarding `Cc1ccc2c(C#N)c(-c3ccc(S(=O)(=O)N[C@@H](C)C(F)(F)F)cn3)n(C(C)C)c2c1` [compound 355, 6-[3-cyano-6-methyl-1-(propan-2-yl)-1H-indol-2-yl]-N-[(2S)-1,1,1-trifluoropropan-2-yl]pyridine-3-sulfonamide], the melting point was in the range of 211 to 216 °C. In addition, in series [1], the pIC50 was more than 6.30.

On to `CC(C)NS(=O)(=O)c1ccc(-c2c(C#N)c3cc(F)ccc3n2C2CCOC2)nc1` (stereo not drawn) [compound 47, 6-[3-cyano-5-fluoro-1-(tetrahydrofuran-3-yl)-1H-indol-2-yl]-N-(propan-2-yl)pyridine-3-sulfonamide], for which the melting point lay in the range of 185 to 188 °C. Besides, the pIC50 in series [1] was more than 6.30.

The compound `CCc1cc2c(cc1F)c(C#N)c(-c1ccc(S(=O)(=O)NC(C)(C)C)cn1)n2-c1ncccn1` [compound 855, N-tert-butyl-6-[3-cyano-6-ethyl-5-fluoro-1-(pyrimidin-2-yl)-1H-indol-2-yl]pyridine-3-sulfonamide] came in with a melting point of 208 to 210 °C. For the same compound, the pIC50 in series [1] is more than 6.30.

For `Cc1ccc2c(C#N)c(-c3ncc(S(=O)(=O)NC(CF)CF)cn3)n(C3CCCCC3)c2c1` [compound 241, 2-(3-cyano-1-cyclohexyl-6-methyl-1H-indol-2-yl)-N-(1,3-difluoropropan-2-yl)pyrimidine-5-sulfonamide], the melting point fell in the range of 225 to 230 °C. Also, the pIC50 in series [1] was more than 6.30.

In turn, `N#Cc1c(-c2ncc(S(=O)(=O)NC(CF)CF)cn2)n(CC2CC2)c2ccc(Cl)cc12` [compound 221, 2-[5-chloro-3-cyano-1-(cyclopropylmethyl)-1H-indol-2-yl]-N-(1,3-difluoropropan-2-yl)pyrimidine-5-sulfonamide] came in with a melting point of 245 to 250 °C. Also, the pIC50 in series [1] is more than 6.30.

`CCc1cc2c(cc1F)c(C#N)c(-c1ccc(S(=O)(=O)N[C@@H](C)C(F)(F)F)cn1)n2-c1cccnn1` [compound 975, 6-[3-cyano-6-ethyl-5-fluoro-1-(pyridazin-3-yl)-1H-indol-2-yl]-N-[(2S)-1,1,1-trifluoropropan-2-yl]pyridine-3-sulfonamide] showed a melting point of 240 to 247 °C. In series [1], the pIC50 was more than 6.30.

Compound `C[C@H](NS(=O)(=O)c1cnc(-c2c(C#N)c3cc(Cl)ccc3n2C2CCCCC2)nc1)C(F)(F)F` [compound 464, 2-(5-chloro-3-cyano-1-cyclohexyl-1H-indol-2-yl)-N-[(2S)-1,1,1-trifluoropropan-2-yl]pyrimidine-5-sulfonamide] displayed a melting point of 253 to 255 °C. Further, the pIC50 in series [1] is 5.70 to 6.30.

In turn, `C[C@H](NS(=O)(=O)c1ccc(-c2c(C#N)c3cc(OC(F)(F)F)ccc3n2-c2cnccn2)nc1)C(F)(F)F` [compound 898, 6-[3-cyano-1-(pyrazin-2-yl)-5-(trifluoromethoxy)-1H-indol-2-yl]-N-[(2S)-1,1,1-trifluoropropan-2-yl]pyridine-3-sulfonamide] gave a melting point of 191 to 195 °C. For the same compound, the pIC50 in series [1] is 5.70 to 6.30.

Compound `C[C@H](NS(=O)(=O)c1cnc(-c2c(C#N)c3ccc(F)cc3n2C2CCC2)nc1)C1CC1` [compound 496, 2-(3-cyano-1-cyclobutyl-6-fluoro-1H-indol-2-yl)-N-[(1S)-1-cyclopropylethyl]pyrimidine-5-sulfonamide] registered a melting point of 207 to 208 °C. In series [1], the pIC50 is 5.70 to 6.30.

`CCc1cc2c(cc1F)c(C(N)=O)c(-c1ccc(S(=O)(=O)N[C@@H](C)C(F)(F)F)cn1)n2-c1cccc(Cl)c1` [compound 1027, 1-(3-chlorophenyl)-6-ethyl-5-fluoro-2-(5-{[(2S)-1,1,1-trifluoropropan-2-yl]sulfamoyl}pyridin-2-yl)-1H-indole-3-carboxamide]: the melting point fell in the range of 200 to 205 °C. In series [1], the pIC50 was more than 6.30.

`CC(C)(C)NS(=O)(=O)c1ccc(-c2c(C#N)c3ccc(OC(F)F)cc3n2-c2ccccc2)nc1` [compound 624, N-tert-butyl-6-[3-cyano-6-(difluoromethoxy)-1-phenyl-1H-indol-2-yl]pyridine-3-sulfonamide] showed a melting point of 216 to 218 °C. Moreover, the pIC50 in series [1] was more than 6.30.

Compound `CNC(=O)c1c(-c2ccc(S(=O)(=O)NC(C)(C)C)cn2)n(C2CCC2)c2cc(C)c(F)cc12` [compound 795, 2-[5-(tert-butylsulfamoyl)pyridin-2-yl]-1-cyclobutyl-5-fluoro-N,6-dimethyl-1H-indole-3-carboxamide] came in with a melting point of 215 to 218 °C. For the same compound, the pIC50 in series [1] was more than 6.30.

Consider `Cc1ccc2c(C#N)c(-c3ccc(NS(=O)(=O)C4CC4)cn3)n(C3CCC3)c2c1` [compound 297, N-[6-(3-cyano-1-cyclobutyl-6-methyl-1H-indol-2-yl)pyridin-3-yl]cyclopropanesulfonamide], for which the melting point lay within 200 to 205 °C. Also, the pIC50 in series [1] is 5.70 to 6.30.

In turn, `CC(C)NS(=O)(=O)c1ccc(-c2c(C#N)c3ccc(C#N)cc3n2CC2CC2)nc1` [compound 348, 6-[3,6-dicyano-1-(cyclopropylmethyl)-1H-indol-2-yl]-N-(propan-2-yl)pyridine-3-sulfonamide] had a melting point of 190 to 192 °C. For the same compound, the pIC50 in series [1] was 5.70 to 6.30.

Compound `Cc1cc2c(cc1F)c(C#N)c(-c1ccc(S(=O)(=O)N[C@H](C)C(F)(F)F)cn1)n2C1CCC1` [compound 609, 6-(3-cyano-1-cyclobutyl-5-fluoro-6-methyl-1H-indol-2-yl)-N-[(2R)-1,1,1-trifluoropropan-2-yl]pyridine-3-sulfonamide] gave a melting point of 211 to 214 °C. For the same compound, the negative logarithm of the IC50 (pIC50) in series [1] was more than 6.30.

Compound `Cc1c(F)cc2c(C#N)c(-c3ccc(S(=O)(=O)N[C@H](C)C(F)(F)F)cn3)n(C3CCCC3)c2c1F` [compound 653, 6-(3-cyano-1-cyclopentyl-5,7-difluoro-6-methyl-1H-indol-2-yl)-N-[(2R)-1,1,1-trifluoropropan-2-yl]pyridine-3-sulfonamide] yielded a melting point of 212 to 217 °C. Further, the pIC50 in series [1] is more than 6.30.

On to `C[C@H](NS(=O)(=O)c1ccc(-c2c(C#N)c3cc(Cl)ccc3n2-c2ccccn2)nc1)C(F)(F)F` [compound 442, 6-[5-chloro-3-cyano-1-(pyridin-2-yl)-1H-indol-2-yl]-N-[(2S)-1,1,1-trifluoropropan-2-yl]pyridine-3-sulfonamide], for which the melting point is 186 to 188 °C. For the same compound, in series [1], the pIC50 is more than 6.30.

`Cc1cc2c(cc1F)c(C#N)c(-c1ncc(S(=O)(=O)N[C@@H](C)C(F)(F)F)cc1C)n2C1CCCC1` [compound 837, 6-(3-cyano-1-cyclopentyl-5-fluoro-6-methyl-1H-indol-2-yl)-5-methyl-N-[(2S)-1,1,1-trifluoropropan-2-yl]pyridine-3-sulfonamide] registered a melting point of 237 to 242 °C. Besides, the pIC50 in series [1] is more than 6.30.

Turning to `C[C@H](NS(=O)(=O)c1ccc(-c2c(C(N)=O)c3c(F)cc(OC(F)F)cc3n2CC2CC2)nc1)C(F)(F)F` [compound 840, 1-(cyclopropylmethyl)-6-(difluoromethoxy)-4-fluoro-2-(5-{[(2S)-1,1,1-trifluoropropan-2-yl]sulfamoyl}pyridin-2-yl)-1H-indole-3-carboxamide], the melting point lay in the range of 211 to 212 °C. Moreover, the pIC50 in series [1] was more than 6.30.

For the origin of these results see patent publication US8735414B2 (priority 2009, dated 2014).
